Experimental findings from patent US5093337A, “Substituted derivatives of 20,21-dinoreburnamenine, their use as medicaments and the pharmaceutical compositions containing them” (Roussel Uclaf, priority 1987, dated 1992) are described below.

The nature of assay [1]: Test for hypobar anoxemia in a mouse (survival time). Particulars: 10 mg/kg intraperitoneal, 60 minutes before the test; 600 mmHg depression; relative to control mice. The class given is in vivo. The protocol: 3) Test for hypobar anoxemia in a mouse
This consists of measuring for a maximum duration of 3 minutes the survival time of mice placed in a 2 liter chamber in which a 600 mmHg depression is carried out. Mice deprived of food for 6 hours are used. The products are administered at a dose of 10 mg/kg by intraperitoneal route in a volume of 0.2 ml/10 g 60 minutes before the test.
The increase in survival time is noted, expressed as a percentage of the animals treated in relation to the control animals, submitted to the same conditions.

Assay [2] relates to adrenergic alpha2 receptors. Briefly: Affinity for adrenergic alpha2 receptors (inhibition of specific 3H rauwolscine fixation, rat cortex). Particulars: from CD (phentolamine) and CX (product) inhibiting 50% of specific fixation of 3H rauwolscine 0.15 nM, 25° C., 45 minutes. The class given is binding, rat (male; brain cortices). The protocol:
1) Affinity for adrenergic alpha2 receptors:
10 cortices removed from the brains of male rats weighing on average 150 g are homogenized in 90 ml of 0.32M sucrose. After centrifuging 1,000 g of the homogenized mixture for 10 minutes at 0° C., the supernatant is centrifuged at 30,000 g for 10 minutes at 0°/+4° C. The deposit is put in suspension in 240 ml of buffer TrisHCl 50 mM pH 7.7, and centrifuged at 30,000 g for 15 minutes at 0°/+4° C. The new deposit obtained is put in suspension in 480 ml of buffer NaKPO4 pH 7.4 50 mM.
2 ml of suspension is then incubated for 45 minutes at 25° C. in the presence of ^3 H rauwolscine at a 0.15 nM concentration:
ii) with increasing concentrations of the product under test or,
iii) in order to determine the non-specific fixation,
with non-radioactive phentolamine at a 10^-5 M concentration.
The incubated suspensions are filtered on Whatman GF/C and the filters are washed three times with 5 ml of buffer NaKPO4 pH 7.4 at 0° C. The radioactivity of the filters is measured by liquid scintillation.
The affinity of the product tested for adrenergic alpha2 receptors is given in relation to the phentolamine as a reference product.
CD=concentration of phentolamine inhibiting 50% of the specific fixation of ^3 H rauwolscine;
CX=concentration of the product under test inhibiting 50% of the specific fixation of ^3 H rauwolscine.
The relative affinity is given by the relation: [formula]

Assay [3] is described as follows: Asphyxic anoxemia (latency time for disappearance of the ECoG). Format: in vivo, Sprague Dawley (Charles River) male rat. Particulars: 10 mg/kg intravenous, 3 minutes before asphyxia; rat; read-out: % of variation of the latency time for disappearance of the ECoG after asphyxia. The procedure:
The test is carried out using a Sprague Dawley (Charles River) male rat anaesthetized with ethyl ether, immobilized (tube curare 1 mg/kg I.V.) and artificially ventilated with air. The electrocorticogram (ECoG) and the arterial pressure are recorded. The rectal temperature is maintained at around 36° C. and the level of carbon dioxide in the blood is maintained between 35 and 40 torr. The products are administered at a dose of 10 mg/kg by intravenous route in a volume of 1 ml/kg 3 minutes before asphyxia obtained by stopping the artificial respiration. The latency time for the disappearance of the ECoG is measured.

A short description of assay [4]: Anti-amnesic effect in a passive avoidance (electric shock treatment amnesia). Format: in vivo. Particulars: 2 mg/kg by oral route; rat. From the text:
Anti-Amnesic Effect in a Passive Avoidance
Rats are placed individually in the lighted compartment of a box having two compartments, the other one being dark. They take refuge immediately in the dark compartment and upon their entry the rats receive an electric shock (1 mA/5 sec) from the grated floor. […] In the second group, the electric shock is immediately followed by the application of an amnesic electric shock treatment (60 mA, 0.6 ms, 0.6 s) (electric shock treatment control group). The third group is identical to the second, but the electric shock treatment is immediately followed by the administration of the compound under test (treated group). Twenty-four hours later, the animals are replaced in the lighted compartment of the box and the latency time of entry into the dark compartment is measured (up to 300 sec. maximum). For the controls, this time is close to 300 sec. The electric shock treatment controls on the other hand move into the dark compartment much more rapidly (amnesic effect).

Assay [5] is described as follows: Test for spontaneous alternation after septal cholinergic injury. Format: in vivo. Particulars: range of doses from 1 to 10 mg/kg i.p., 30 minutes before each session; rat. From the text: 4) Test for spontaneous alternation after septal cholinergic injury
The behaviour of spontaneous alternation is an essential characteristic of the behavioural performance of the rat, which, put in a situation of choice between a familiar stimulus and a new stimulus, will choose the latter. Thus, in the case of a labyrinth Y, the animal will preferably choose an arm which has not yet been explored as opposed to an arm that he has just visited (spontaneous alternation). This faculty of discrimination between the "familiar" and the "new" implies the coming into play of a form of memory, the Short Term Memory or Work Memory. The performances of spontaneous alternation allow therefore an evaluation of the capacity of this type of memory.
The method used consists of creating a mnesic deficit in the rat, by lesion of the septo-hippocampic cholinergic system, and of researching whether the product under test is capable of reversing this deficit. In the present case, this deficit is evaluated in a spontaneous alternation behaviour; the lesioned animal has alternation performances of about 50%, because it carries out its choices by chance.
Each experiment comprises a control-vehicle group, a lesioned-vehicle group and one or two lesioned groups receiving the product under test. […]

The nature of assay [6]: Test for anti-depressive activity (forced swimming, duration of immobility). Format: in vivo, Sprague Dawley rats. Particulars: ip, 5 min; i.p. 24, 5 and half an hour before the test; immobility over 5 minutes; rat; read-out: AD50 (the source's name). The procedure: 5) Test for anti-depressive activity
The tests are carried out on groups of 5 Sprague Dawley rats. The unaffected animals are placed for 15 minutes in a vertical cylinder of plexiglass (diameter: 18 cm, height: 40 cm) containing water at 25° C. at a height of 15 cm (initial swimming test). They are then dried for 15 minutes in a chamber heated to 32° C.; 24 hours later, they are replaced in the cylinder, filled with water, and the total duration of the periods of immobility is measured over 5 minutes.
The compound is administered i.p. successively 24, 5 and half an hour before the test. The first administration takes place immediately after the initial swimming test, just before the animals are replaced in their breeding box.
The averages of the treated groups are compared with those of the control group using Dunnett's test.

For `O=[N+]([O-])c1cccc2c1c1c3n2C(O)CC2CCCN(CC1)C32` (racemic) [Example 40, [(±) (16alpha)]-9-nitro-14,15dihydro-20,21-dinoreburnamenin-14-ol], the “% of increase in survival time” value in assay [1] stood at 22%.

As for `Clc1ccc2c3c4n(c2c1)C=C[C@H]1CCCN(CC3)[C@H]41` (relative stereo) [Example 2, [(±) (16alpha)]-11-chloro-20,21-dinoreburnamenine], the “RAL (relative affinity, in relation to phentolamine as reference product)” value in assay [2] is 110. The change in vivo at 10 mg/kg in assay [3] was 43%.

Turning to `O[C@@H]1C[C@H]2CCCN3CCc4c(n1c1ccc(Cl)cc41)[C@H]23` (relative stereo) [Example 4, [(±) (14alpha, 16alpha)]-10-chloro-14,15-dihydro-20,21-dinoreburnamenin-14-ol], the “RAL (relative affinity, in relation to phentolamine as reference product)” value in assay [2] amounted to 35.

Turning to `Clc1ccc2c(c1)c1c3n2C=C[C@H]2CCCN(CC1)[C@H]32` (relative stereo) [Example 5, [(±) 16alpha]-10-chloro-20,21-dinoreburnamenine], in assay [2], the “RAL (relative affinity, in relation to phentolamine as reference product)” value is on record as 55. In addition, the change in vivo at 10 mg/kg in assay [3] turned out to be 26%.

On to `Cc1ccc2c3c4n(c2c1)[C@H](O)C[C@H]1CCCN(CC3)[C@H]41` (relative stereo) [Example 8, [(±) (14alpha, 16alpha)]-14,15-dihydro-11-methyl-20,21-dinoreburnamenin-14-ol], for which the change in vivo at 10 mg/kg in assay [3] amounted to 37%.

On to `Cc1ccc2c3c4n(c2c1)C=C[C@H]1CCCN(CC3)[C@H]41` (relative stereo) [Example 10, [(±) (16alpha)]-11-methyl-20,21-dinoreburnamenine], for which the “RAL (relative affinity, in relation to phentolamine as reference product)” value in assay [2] is given as 160. Further, the change in vivo at 10 mg/kg in assay [3] was determined as 47%. Moreover, the “reversal of the effect of an electric shock treatment (passive avoidance)” value in assay [4] is recorded as “reverses the anti-amnesic effect of an electric shock treatment”. The “reversal of the mnesic deficit caused by the septal cholinergic lesion (spontaneous alternation)” value in assay [5] is “reverses the mnesic deficit caused by the septal cholinergic lesion”. For the same compound, in assay [6], the ED50 was 13 mg/kg.

As for `Cc1ccc2c3c4n(c2c1)CC[C@H]1CCCN(CC3)[C@H]41` (relative stereo) [Example 12, [(±) (16alpha)]-14,15-dihydro-11-methyl-20,21-dinor-eburnamenine], the “RAL (relative affinity, in relation to phentolamine as reference product)” value in assay [2] is 39. Moreover, the change in vivo at 10 mg/kg in assay [3] is 18%.

Take `Cc1ccc2c(c1)c1c3n2C=C[C@H]2CCCN(CC1)[C@H]32` (relative stereo) [Example 16, [(±) (16alpha)]-10-methyl-20,21-dinoreburnamenine]: the “RAL (relative affinity, in relation to phentolamine as reference product)” value in assay [2] is recorded as 136. The change in vivo at 10 mg/kg in assay [3] stood at 22%.

As for `Cc1ccc2c(c1)c1c3n2CC[C@H]2CCCN(CC1)[C@H]32` (relative stereo) [Example 18, [(±) (16alpha)]-14,15-dihydro-10-methyl-20,21-dinoreburnamenine], the “RAL (relative affinity, in relation to phentolamine as reference product)” value in assay [2] was 39.

`COc1ccc2c3c4n(c2c1)[C@@H](O)C[C@H]1CCCN(CC3)[C@H]41` (relative stereo) [Example 21, [(±) (14beta, 16alpha)]-14,15-dihydro-11-methoxy-20,21-dinoreburnamenin-14-ol]: the change in vivo at 10 mg/kg in assay [3] turned out to be 30%.

`COc1ccc2c3c4n(c2c1)[C@H](O)C[C@H]1CCCN(CC3)[C@H]41` (relative stereo) [Example 22, [(±) (14alpha, 16alpha)]-14,15-dihydro-11-methoxy-20,21-dinoreburnamenin-14-ol]: the change in vivo at 10 mg/kg in assay [3] came out at 18%.

`COc1ccc2c3c4n(c2c1)C=C[C@H]1CCCN(CC3)[C@H]41` (relative stereo) [Example 24, [(±) 16alpha]-11-methoxy-20,21-norburnamenine]: the change in vivo at 10 mg/kg in assay [3] stood at 35%.

`COc1ccc2c3c4n(c2c1)CC[C@H]1CCCN(CC3)[C@H]41` (relative stereo) [Example 25, [(±) (16alpha)]-14,15-dihydro-11-methoxy-20,21-dinoreburnamenine]: in assay [3], the change in vivo at 10 mg/kg was 20%.

Consider `COc1ccc2c(c1)c1c3n2[C@H](O)C[C@H]2CCCN(CC1)[C@H]32` (relative stereo) [Example 28, [(±) (14alpha, 16alpha)]-14,15-dihydro-10-methoxy-20,21-dinoreburnamenin-14-ol], for which the change in vivo at 10 mg/kg in assay [3] stood at 35%.

For `COc1ccc2c(c1)c1c3n2C=C[C@H]2CCCN(CC1)[C@H]32` (relative stereo) [Example 29, [(±) (16alpha)]-10-methoxy-20,21-dinoreburnamenine], the change in vivo at 10 mg/kg in assay [3] worked out at 25%.

Consider `O=[N+]([O-])c1ccc2c3c4n(c2c1)C=C[C@H]1CCCN(CC3)[C@H]41` (relative stereo) [Example 39, [(±) (16alpha)]-11-nitro-20,21-dinoreburnamenine], for which the “% of increase in survival time” value in assay [1] came to 14%.

As to `O=[N+]([O-])c1cccc2c1c1c3n2C=C[C@H]2CCCN(CC1)[C@H]32` (relative stereo) [Example 41, [(±) (16alpha)]-9-nitro-20,21-dinoreburnamenine], the “% of increase in survival time” value in assay [1] worked out at 13%.
